Our source for the IC50 values is US10961228B2, “JAK1 selective inhibitors” (AstraZeneca AB, priority 2017, dated 2021).

Some results are limits rather than exact numbers.

The target of assay [1] is recombinant JAK1 (amino acids 866-1154) (Homo sapiens (Human), UniProt P23458). In words: Enzyme inhibition studies, JAK1 (5 mM ATP, Caliper). The format is biochemical. As to the method: (§1) JAK enzyme was expressed as N-terminal GST fusion in insect cells and purified by glutathione-affinity and size-exclusion chromatographies. Enzymes were assayed at their approximated high end of physiological ATP concentration of 5 mM, in the presence of inhibitor dosed at 30, 3, 0.3, 0.03, 0.003 and 0 μM final test concentrations.
Chain of recombinant JAK1 (amino acids 866-1154) (P23458 866-1154): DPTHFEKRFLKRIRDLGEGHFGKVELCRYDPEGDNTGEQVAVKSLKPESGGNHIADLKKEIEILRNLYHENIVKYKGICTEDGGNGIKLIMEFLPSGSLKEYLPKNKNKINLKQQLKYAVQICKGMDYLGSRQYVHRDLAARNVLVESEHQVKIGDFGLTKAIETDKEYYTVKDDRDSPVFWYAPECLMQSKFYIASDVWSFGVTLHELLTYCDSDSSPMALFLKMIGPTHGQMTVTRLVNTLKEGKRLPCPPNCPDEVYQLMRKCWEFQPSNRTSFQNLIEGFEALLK
(§2) Phosphorylated and unphosphotylated peptides were separated and quantified by a Caliper LC3000 system (Caliper Life Sciences, MA) for calculating percent inhibition.

Assay [2] concerns the target recombinant JAK2 (amino acids 831-1132) (Homo sapiens (Human), UniProt O60674). In words: Enzyme inhibition studies, JAK2 (5 mM ATP, Caliper). The format is biochemical. As to the method:
as §1, §2

Assay [3] concerns the target recombinant JAK3 (amino acids 781-1124) (Homo sapiens (Human), UniProt P52333). In words: Enzyme inhibition studies, JAK3 (5 mM ATP, Caliper). It counts as biochemical. On the procedure:
as §1, §2

The test system of assay [4] is IL-13 induced STAT6 promotor luciferase reporter in U937 monocytes (U937-STAT6-Luc). In words: Cellular interleukin (IL-13) induced JAK-STAT6-luciferase assay (pSTAT6). It counts as cell-based. The settings on record: Homo sapiens, U-937; IL-13 induced STAT6-luciferase, U937-STAT6-Luc cells. On the procedure:
Cells were harvested by centrifugation at 250 g for 5 min and resuspended in Assay buffer (20 mM HEPES, 1×HBSS and 0.1% BSA) to 1000 cells pr μl. For stimulation of cells was used interleukin (IL-13) also dissolved in Assay buffer to […]. […] Test and control compounds were applied to assay plates (low vol white 384-well plates) in serial dilutions from 10 mM to 0.5 nM at 5 nl pr well in DMSO.
To each well was added 4 μl cells and 4 μl interleukin (IL-13) and the plates were sealed and incubated at 37° C. for 4½ h and then at room temperature for 30 min. The assay was developed by addition of 4 μl pr well of SteadyGlo (Promega) and after […] the plates were read at an Envision plate reader with luminescence filter.

Chain of recombinant JAK3 (amino acids 781-1124) (P52333 781-1124): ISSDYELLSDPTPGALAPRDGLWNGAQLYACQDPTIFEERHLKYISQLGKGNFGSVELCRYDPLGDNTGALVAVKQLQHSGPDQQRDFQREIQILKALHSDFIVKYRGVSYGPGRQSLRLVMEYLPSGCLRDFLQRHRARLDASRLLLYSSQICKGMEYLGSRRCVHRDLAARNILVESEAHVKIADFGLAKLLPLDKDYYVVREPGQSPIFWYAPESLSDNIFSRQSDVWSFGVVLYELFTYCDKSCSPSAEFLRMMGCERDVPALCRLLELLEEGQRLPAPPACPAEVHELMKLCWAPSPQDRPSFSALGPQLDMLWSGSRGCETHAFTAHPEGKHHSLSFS
Chain of recombinant JAK2 (amino acids 831-1132) (O60674 831-1132): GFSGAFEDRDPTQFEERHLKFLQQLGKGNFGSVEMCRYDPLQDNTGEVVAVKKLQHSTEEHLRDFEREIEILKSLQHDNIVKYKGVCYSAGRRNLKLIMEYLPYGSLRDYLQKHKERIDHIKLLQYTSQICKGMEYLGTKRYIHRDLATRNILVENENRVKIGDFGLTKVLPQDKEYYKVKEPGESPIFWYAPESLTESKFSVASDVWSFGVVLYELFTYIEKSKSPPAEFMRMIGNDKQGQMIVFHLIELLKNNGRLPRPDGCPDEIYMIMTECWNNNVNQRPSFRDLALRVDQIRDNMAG

For orientation: IC50 means the concentration needed to halve the response being measured. Consider `C[C@H](C(=O)Nc1cccc2c(-c3nc(Nc4cccc(S(C)(=O)=O)c4F)ncc3Cl)c[nH]c12)N1CCN(C)CC1` [Example 5], for which the concentration for half-maximal inhibition (IC50) in assay [1] was 0.0051 µM; in assay [2] it was 5.02 µM; in assay [3], above 30 µM; in assay [4], 0.029 µM.

For the molecule `Cc1cnc(Nc2cccc(S(C)(=O)=O)c2F)nc1-c1c[nH]c2c(NC(=O)[C@H](C)N3CCN(C)CC3)cccc12` [Example 6, (S)-N-(3-(2-((2-fluoro-3-(methylsulfonyl)phenyl)amino)-5-methylpyrimidin-4-yl)-1H-indol-7-yl)-2-(4-methylpiperazin-1-yl)propanamide], the half-inhibitory concentration (IC50) is 0.0574 µM in assay [1], above 30 µM in assay [2], above 30 µM in assay [3] and 0.172 µM in assay [4].

On to `Cc1cnc(Nc2cccc(S(C)(=O)=O)c2F)nc1-c1c[nH]c2c(NC(=O)[C@@H](C)N3C[C@H](C)N(C)[C@@H](C)C3)cccc12` [Example 7, (R)-N-(3-(2-((2-fluoro-3-(methylsulfonyl)phenyl)amino)-5-methylpyrimidin-4-yl)-1H-indol-7-yl)-2-((3S,5S)-3,4,5-trimethylpiperazin-1-yl)propanamide], for which the IC50 in assay [1] was 0.0066 µM; in assay [2], 14.5 µM; in assay [3] it was above 30 µM; in assay [4], 0.057 µM.

On to `C[C@H](C(=O)Nc1cccc2c(-c3nc(Nc4cccc(S(C)(=O)=O)c4F)ncc3F)c[nH]c12)N1C[C@H](C)N(C)[C@@H](C)C1` [Example 8, (R)-N-(3-(5-fluoro-2-((2-fluoro-3-(methylsulfonyl)phenyl)amino)pyrimidin-4-yl)-1H-indol-7-yl)-2-((3S,5S)-3,4,5-trimethylpiperazin-1-yl)propanamide], for which the IC50 in assay [1] is 0.0245 µM; in assay [2], above 30 µM; in assay [3], above 30 µM; in assay [4], 0.078 µM.

Regarding `Cc1cnc(Nc2cccc(S(C)(=O)=O)c2F)nc1-c1c[nH]c2c(NC(=O)[C@H](C)N3C[C@H](C)N[C@@H](C)C3)cccc12` [Example 10, (S)-2-((3S,5S)-3,5-dimethylpiperazin-1-yl)-N-(3-(2-((2-fluoro-3-(methylsulfonyl)phenyl)amino)-5-methylpyrimidin-4-yl)-1H-indol-7-yl)propanamide], the IC50 is 0.0398 µM in assay [1], 21 µM in assay [2], above 30 µM in assay [3] and 0.352 µM in assay [4].

`C[C@H](C(=O)Nc1cccc2c(-c3nc(Nc4cccc(S(C)(=O)=O)c4F)ncc3F)c[nH]c12)N1C[C@H](C)N[C@@H](C)C1` [Example 11, (R)-2-((3S,5S)-3,5-dimethylpiperazin-1-yl)-N-(3-(5-fluoro-2-((2-fluoro-3-(methylsulfonyl)phenyl)amino)pyrimidin-4-yl)-1H-indol-7-yl)propanamide]: the IC50 was 0.0131 µM in assay [1], 11.1 µM in assay [2], above 30 µM in assay [3] and 0.085 µM in assay [4].

Take `C[C@H]1CN([C@@H](C)C(=O)Nc2cccc3c(-c4nc(Nc5cccc(S(C)(=O)=O)c5F)ncc4F)c[nH]c23)C[C@H](C)N1` [Example 12, (S)-2-((3S,5S)-3,5-dimethylpiperazin-1-yl)-N-(3-(5-fluoro-2-((2-fluoro-3-(methylsulfonyl)phenyl)amino)pyrimidin-4-yl)-1H-indol-7-yl)propanamide]: the IC50 in assay [1] was 1.13 µM; in assay [2], above 30 µM; in assay [3] it was above 30 µM; in assay [4] it was above 4.95 µM.

As to `CC[C@@H](C(=O)Nc1cccc2c(-c3nc(Nc4cccc(S(C)(=O)=O)c4F)ncc3C)c[nH]c12)N1CCN(C)CC1` [Example 13, (S)-N-(3-(2-((2-fluoro-3-(methylsulfonyl)phenyl)amino)-5-methylpyrimidin-4-yl)-1H-indol-7-yl)-2-(4-methylpiperazin-1-yl)butanamide], the IC50 is 0.0224 µM in assay [1], 26.1 µM in assay [2], above 30 µM in assay [3] and 0.097 µM in assay [4].

For the molecule `CC[C@H](C(=O)Nc1cccc2c(-c3nc(Nc4cccc(S(C)(=O)=O)c4F)ncc3C)c[nH]c12)N1CCN(C)CC1` [Example 14, (R)-N-(3-(2-((2-fluoro-3-(methylsulfonyl)phenyl)amino)-5-methylpyrimidin-4-yl)-1H-indol-7-yl)-2-(4-methylpiperazin-1-yl)butanamide], the half-inhibitory concentration (IC50) is below 0.003 µM in assay [1], 2.43 µM in assay [2], above 30 µM in assay [3] and 0.021 µM in assay [4].

Regarding `CC[C@H](C(=O)Nc1cccc2c(-c3nc(Nc4cccc(S(C)(=O)=O)c4F)ncc3F)c[nH]c12)N1CCCN(C)CC1` [Example 17], the IC50 in assay [1] was 0.0036 µM; in assay [2], 4.86 µM; in assay [3] it was above 30 µM; in assay [4], 0.09 µM.

`CC[C@@H](C(=O)Nc1cccc2c(-c3nc(Nc4cccc(S(C)(=O)=O)c4F)ncc3F)c[nH]c12)N1CCCN(C)CC1` [Example 18]: the IC50 was 0.403 µM in assay [1], above 30 µM in assay [2], above 30 µM in assay [3] and 1.28 µM in assay [4].

Consider `CC[C@@H](C(=O)Nc1cccc2c(-c3nc(Nc4cccc(S(C)(=O)=O)c4F)ncc3C)c[nH]c12)N1C[C@H](C)N(C)[C@@H](C)C1` [Example 19, (S)-N-(3-(2-((2-fluoro-3-(methylsulfonyl)phenyl)amino)-5-methylpyrimidin-4-yl)-1H-indol-7-yl)-2-((3S,5S)-3,4,5-trimethylpiperazin-1-yl)butanamide], for which the IC50 in assay [1] was 0.143 µM; in assay [2] it was above 30 µM; in assay [3] it was above 30 µM; in assay [4], 0.423 µM.

On to `COC[C@@H](C(=O)Nc1cccc2c(-c3nc(Nc4cccc(S(C)(=O)=O)c4F)ncc3C)c[nH]c12)N1C[C@H](C)N(C)[C@@H](C)C1` [Example 21, (S)-N-(3-(2-((2-fluoro-3-(methylsulfonyl)phenyl)amino)-5-methylpyrimidin-4-yl)-1H-indol-7-yl)-3-methoxy-2-((3S,5S)-3,4,5-trimethylpiperazin-1-yl)propanamide], for which the IC50 in assay [1] was 0.986 µM; in assay [2], above 30 µM; in assay [3], above 30 µM; in assay [4], 2.23 µM.

With `COC[C@H](C(=O)Nc1cccc2c(-c3nc(Nc4cccc(S(C)(=O)=O)c4F)ncc3C)c[nH]c12)N1C[C@H](C)N(C)[C@@H](C)C1` [Example 22, (R)-N-(3-(2-((2-fluoro-3-(methylsulfonyl)phenyl)amino)-5-methylpyrimidin-4-yl)-1H-indol-7-yl)-3-methoxy-2-((3S,5S)-3,4,5-trimethylpiperazin-1-yl)propanamide], the IC50 was below 0.003 µM in assay [1], 2.56 µM in assay [2], above 30 µM in assay [3] and 0.029 µM in assay [4].

Turning to `CC[C@@H](C(=O)Nc1cccc2c(-c3nc(Nc4cccc(S(C)(=O)=O)c4F)ncc3F)c[nH]c12)N1C[C@H](C)N(C)[C@@H](C)C1` [Example 23, (S)-N-(3-(5-fluoro-2-(2-fluoro-3-(methylsulfonyl)phenylamino)pyrimidin-4-yl)-1H-indol-7-yl)-2-((3S,5S)-3,4,5-trimethylpiperazin-1-yl)butanamide], the IC50 in assay [1] was 0.183 µM; in assay [2], above 30 µM; in assay [3], above 30 µM; in assay [4], 0.866 µM.

On to `Cc1cnc(Nc2cccc(S(C)(=O)=O)c2F)nc1-c1c[nH]c2c(NC(=O)[C@@H](C)N3CCNCC3)cccc12` [Example 24, (R)-N-(3-(2-((2-fluoro-3-(methylsulfonyl)phenyl)amino)-5-methylpyrimidin-4-yl)-1H-indol-7-yl)-2-(piperazin-1-yl)propanamide], for which the IC50 in assay [1] was 0.0042 µM; in assay [2], 3.46 µM; in assay [3] it was above 30 µM; in assay [4] it was 0.042 µM.

Consider `Cc1cnc(Nc2cccc(S(C)(=O)=O)c2F)nc1-c1c[nH]c2c(NC(=O)[C@H](C)N3CCNCC3)cccc12` [Example 25, (S)-N-(3-(2-((2-fluoro-3-(methylsulfonyl)phenyl)amino)-5-methylpyrimidin-4-yl)-1H-indol-7-yl)-2-(piperazin-1-yl)propanamide], for which the IC50 was 0.0228 µM in assay [1], 6.59 µM in assay [2], above 30 µM in assay [3] and 0.063 µM in assay [4].

Consider `CC[C@H](C(=O)Nc1cccc2c(-c3nc(Nc4cccc(S(C)(=O)=O)c4F)ncc3C)c[nH]c12)N1C[C@@H](C)N[C@H](C)C1` [Example 26, (R)-2-((3R,5R)-3,5-dimethylpiperazin-1-yl)-N-(3-(2-((2-fluoro-3-(methylsulfonyl)phenyl)amino)-5-methylpyrimidin-4-yl)-1H-indol-7-yl)butanamide], for which the half-inhibitory concentration (IC50) in assay [1] was below 0.003 µM; in assay [2], 0.456 µM; in assay [3], above 30 µM; in assay [4] it was 0.038 µM.
